Results published in patent US11713338B2, “Cyclic peptides multimers targeting α-4-β-7 integrin” (priority 2016, dated 2023).

Experiments:
[1] = biological target: T1, integrin α4β7 (RPMI8866 human cells adhering to MAdCAM-1) (Homo sapiens, UniProt P13612+P26010); assay: Integrin α4β7-MAdCAM cell adhesion assay (RPMI8866 cells); type: cell-based; conditions: RPMI8866 cells adhering to MAdCAM; read-out: RPMI8866 Adhesion α4β7/MAdCAM IC50
T1 construct: RMP18866 cells, which express integrin α4β7; host or cells: RPMI8866
T1 sequence (P13612 34-1032): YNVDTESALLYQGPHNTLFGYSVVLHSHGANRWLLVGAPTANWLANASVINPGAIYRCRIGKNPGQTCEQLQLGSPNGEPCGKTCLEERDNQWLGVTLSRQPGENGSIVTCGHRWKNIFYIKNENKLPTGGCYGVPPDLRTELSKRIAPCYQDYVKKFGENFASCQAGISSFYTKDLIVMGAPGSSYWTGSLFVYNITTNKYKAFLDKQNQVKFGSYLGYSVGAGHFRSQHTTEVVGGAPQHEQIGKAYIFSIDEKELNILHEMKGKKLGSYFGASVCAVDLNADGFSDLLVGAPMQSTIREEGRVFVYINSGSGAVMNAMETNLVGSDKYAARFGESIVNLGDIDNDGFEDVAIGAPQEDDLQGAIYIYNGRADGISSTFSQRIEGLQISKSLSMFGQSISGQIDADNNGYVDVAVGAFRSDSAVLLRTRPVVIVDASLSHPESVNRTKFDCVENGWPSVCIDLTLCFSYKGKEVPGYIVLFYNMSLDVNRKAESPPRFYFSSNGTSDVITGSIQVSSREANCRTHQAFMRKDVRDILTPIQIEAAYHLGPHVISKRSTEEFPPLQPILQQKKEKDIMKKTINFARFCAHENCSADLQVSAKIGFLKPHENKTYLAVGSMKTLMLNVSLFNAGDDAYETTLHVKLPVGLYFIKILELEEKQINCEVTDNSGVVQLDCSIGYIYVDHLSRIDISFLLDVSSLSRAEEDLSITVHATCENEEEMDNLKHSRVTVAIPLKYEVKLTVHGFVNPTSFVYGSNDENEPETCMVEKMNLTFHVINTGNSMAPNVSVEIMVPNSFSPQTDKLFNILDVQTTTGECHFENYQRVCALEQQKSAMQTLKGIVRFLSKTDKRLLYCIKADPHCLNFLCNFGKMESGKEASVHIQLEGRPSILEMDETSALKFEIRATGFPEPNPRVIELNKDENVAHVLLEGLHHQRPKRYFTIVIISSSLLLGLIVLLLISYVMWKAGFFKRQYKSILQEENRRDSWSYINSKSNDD
T1 sequence (P26010 20-798): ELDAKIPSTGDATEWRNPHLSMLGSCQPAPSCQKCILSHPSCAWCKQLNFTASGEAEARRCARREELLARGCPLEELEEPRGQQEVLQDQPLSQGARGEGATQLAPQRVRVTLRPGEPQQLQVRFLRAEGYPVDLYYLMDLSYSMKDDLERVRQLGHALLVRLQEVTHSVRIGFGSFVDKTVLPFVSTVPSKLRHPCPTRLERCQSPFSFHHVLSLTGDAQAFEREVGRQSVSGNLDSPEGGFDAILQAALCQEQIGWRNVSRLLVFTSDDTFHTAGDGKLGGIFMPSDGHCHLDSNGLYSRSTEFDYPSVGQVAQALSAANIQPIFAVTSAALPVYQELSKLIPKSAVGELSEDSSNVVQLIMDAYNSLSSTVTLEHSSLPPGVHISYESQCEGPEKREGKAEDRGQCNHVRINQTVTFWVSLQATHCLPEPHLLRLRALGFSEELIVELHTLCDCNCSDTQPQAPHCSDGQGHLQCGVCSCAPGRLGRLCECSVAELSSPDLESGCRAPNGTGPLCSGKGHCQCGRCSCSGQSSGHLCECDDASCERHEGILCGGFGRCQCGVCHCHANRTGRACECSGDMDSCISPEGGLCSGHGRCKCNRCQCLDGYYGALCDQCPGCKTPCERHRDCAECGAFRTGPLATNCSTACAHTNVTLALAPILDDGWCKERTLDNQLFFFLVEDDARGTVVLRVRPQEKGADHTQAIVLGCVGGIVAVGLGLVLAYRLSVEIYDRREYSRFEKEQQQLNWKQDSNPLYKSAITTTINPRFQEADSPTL
How it was run: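 RPMI8866 cells were loaded with […] calcein in PBS for 30 min at 37° C. After plate washes with PBS, fluorescence of adherent cells was read, and no-cell control wells were subtracted from each test well to build the dose response.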

[2] = biological target: T2, integrin α4β7 on α4β7+ memory T helper cells (Homo sapiens, UniProt P13612+P26010); assay: MAdCAM-1 competition / receptor occupancy assay in human whole blood, α4β7-positive Th memory cells; type: cell-based; conditions: human whole blood, inhibition of MAdCAM-1 binding to α4β7-positive Th memory cells, FACS; read-out: MADCAM FACS α4β7 Th mem
T2 construct: endogenous in cells
T2 sequence (P13612 34-1032): T1 sequence (P13612 34-1032)
T2 sequence (P26010 20-798): T1 sequence (P26010 20-798)
Procedure: Analyte Competition Assay in CD4+ Integrin α4+β7-Lo Memory T Cells
Receptor occupancy in primary cells was determined by measuring the amount of biotinylated human recombinant MAdCAM-1-FC or human recombinant VCAM-1-Fc bound to selected cell populations using flow cytometry. Human recombinant MAdCAM-1-FC or human recombinant VCAM-1-FC (R&D systems) were biotinylated using commercially available reagents and protocol (Pierce).
Whole blood was collected from human donors in sodium heparin tubes. […] Cells were washed twice with 1 mL of 1X DPBS calcium magnesium free (CMF) (ThermoFisher Scientific) and resuspended in 100 microL of DPBS CMF.
Biotinylated human recombinant MAdCAM-1-Fc or VCAM-1-Fc were added at saturating concentration and incubated at room temperature for 1 hour. […] Cells were washed with 1 mL stain buffer-FBS (BD Biosciences) and resuspended in 100 μl stain Buffer-FBS (BD Biosciences) containing 4 mM MnCl2. […] Cells were then washed with 1 mL stain buffer-FBS and resuspended in […] stain buffer-FBS. The cells were incubated in the dark for 30 minutes at room temperature with 1 ul Streptavidin APC (Biolegend 0.2 mg/ml) and a panel of antibodies for the detection of memory T helper a4b7-positive cells subset. And amount of 5.0 ul each of the following antibodies were used; CD45 FITC (BioLegend 200 ug/ml), CD29 APC Cy7 (BioLegend 100 ug/ml), Integrin beta7 PE, (BioLegend concentration 50 μg/mL), CD49d V421 (BioLegend 50 μg/mL), CD3 V510 (BioLegend 30 μg/mL), CD4 PECy7 (BioLegend 100 μg/mL), CD45RO PerCP, BioLegend 200 μg/mL). The cells were then washed with stain-buffer-FBS and resuspended in 150 microL stain buffer-FBS for acquisition on the flow cytometer (BD FACSCanto™ flow cytometer and BDFACSDiva™ software). FACS data was acquire by electronic gating on the basis of forward versus side scatter, The cytometer was set to collect 20,000 events in each tube. Cell population were determined using the following markers, CD45+, CD3+, CD4+, CD45RO+, CD49d+, integrin b7, biotinylated ligands.
Compound receptor occupancy was defined as the decrease in the number of integrin β7+ or integrin β7-lo cells binding biotinylated rhMAdCAM-1 or rhVCAM-1, respectively.
Receptor occupancy was calculated with the following equation: 100−((% ligand-positive cells with compound/% ligand-positive cells DMSO)*100) In Vivo T Lymphocyte Trafficking Analysis in Mouse Model of Colitis

[3] = biological target: T3, recombinant integrin α4β1 (Homo sapiens, UniProt P05556+P13612); assay: Integrin α4β1—VCAM-1 competition ELISA; type: binding; conditions: read-out: ELISA α4β1 Assay IC50
T3 construct: purchased R&D Systems 5397-A3-050
How it was run: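 Compound dilutions added to coated plate and shaken at room temperature for 2 h (300 rpm) to binding equilibrium. Wash buffer: 50 mM Tris, 100 mM NaCl, 1 mM MnCl2, 0.05% Tween. Bound Fc-tagged ligand detected with anti-human IgG Fc-HRP, 1 h at room temperature.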

T3 sequence (P05556 21-728 limits assumed, one chain of several): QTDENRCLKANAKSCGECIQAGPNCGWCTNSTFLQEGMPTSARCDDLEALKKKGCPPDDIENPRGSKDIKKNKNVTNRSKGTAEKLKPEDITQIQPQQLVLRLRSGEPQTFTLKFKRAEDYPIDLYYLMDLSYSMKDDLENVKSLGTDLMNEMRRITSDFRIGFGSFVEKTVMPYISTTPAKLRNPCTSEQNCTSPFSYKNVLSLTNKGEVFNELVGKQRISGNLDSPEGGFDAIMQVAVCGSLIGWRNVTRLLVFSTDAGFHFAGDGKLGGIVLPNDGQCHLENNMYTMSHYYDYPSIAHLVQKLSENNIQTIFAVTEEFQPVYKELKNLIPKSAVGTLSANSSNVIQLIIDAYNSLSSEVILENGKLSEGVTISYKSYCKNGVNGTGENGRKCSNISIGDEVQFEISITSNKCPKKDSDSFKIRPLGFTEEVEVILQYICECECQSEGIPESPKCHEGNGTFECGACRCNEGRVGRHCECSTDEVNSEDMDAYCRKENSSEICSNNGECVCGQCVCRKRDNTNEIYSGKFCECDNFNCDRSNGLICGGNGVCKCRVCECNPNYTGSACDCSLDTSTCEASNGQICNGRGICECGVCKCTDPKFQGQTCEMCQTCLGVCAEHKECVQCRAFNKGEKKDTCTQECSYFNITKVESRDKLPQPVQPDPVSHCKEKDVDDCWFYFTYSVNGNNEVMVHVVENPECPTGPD

Compound `CC(C)C[C@@H]1NC(=O)c2ccc(-c3ccc(N4CCN(C(=O)CCOCCOCCOCCOCCOCCOCCOCCOCCOCCOCCOCCC(=O)N5CCN(c6ccc(-c7ccc8cc7CNC(=O)[C@@H]7CCCN7[C@H](C(=O)NC(C)(C)C)[C@H](C)NC(=O)[C@H]([C@@H](C)O)NC(=O)[C@H](CC(=O)O)NC(=O)[C@H](CC(C)C)NC8=O)cc6)CC5)CC4)cc3)c(c2)CNC(=O)[C@@H]2CCCN2[C@H](C(=O)NC(C)(C)C)[C@H](C)NC(=O)[C@H]([C@@H](C)O)NC(=O)[C@H](CC(=O)O)NC1=O` [Compound 503] has an IC50 [1] of 45 nM and an IC50 [2] of 250 nM.
`CC(C)C[C@@H]1NC(=O)c2ccc(-c3ccc(N4CCN(C(=O)c5ccccc5C(=O)N5CCN(c6ccc(-c7ccc8cc7CNC(=O)[C@@H]7CCCN7[C@H](C(=O)NC(C)(C)C)[C@H](C)NC(=O)[C@H]([C@@H](C)O)NC(=O)[C@H](CC(=O)O)NC(=O)[C@H](CC(C)C)NC8=O)cc6)CC5)CC4)cc3)c(c2)CNC(=O)[C@@H]2CCCN2[C@H](C(=O)NC(C)(C)C)[C@H](C)NC(=O)[C@H]([C@@H](C)O)NC(=O)[C@H](CC(=O)O)NC1=O` [Compound 512] was tested, and the IC50 [1] was 25 nM and the IC50 [2] was 64 nM.
In the case of `CC(C)C[C@@H]1NC(=O)[C@H]2Cc3ccccc3CN2C(=O)[C@H](Cc2cccc(CNC(=O)CCCCCC(=O)NCc3cccc(C[C@@H]4NC(=O)[C@@H]5CCCN5[C@H](C(=O)NC(C)(C)C)[C@H](C)NC(=O)[C@H]([C@@H](C)O)NC(=O)[C@H](CC(=O)O)NC(=O)[C@H](CC(C)C)NC(=O)[C@H]5Cc6ccccc6CN5C4=O)c3)c2)NC(=O)[C@@H]2CCCN2[C@H](C(=O)NC(C)(C)C)[C@H](C)NC(=O)[C@H]([C@@H](C)O)NC(=O)[C@H](CC(=O)O)NC1=O` [Compound 527], the IC50 [3] is reported as 1.1 nM, the IC50 [1] is reported as 43 nM and the IC50 [2] is reported as 126 nM.
